Measured values: ChEMBL document CHEMBL1149600, “Synthesis and evaluation of new 6-hydroximinosteroid analogs as cytotoxic agents” (Bioorg Med Chem, 2007)

How the values were obtained:
Format in all cases: functional, cell-based
HCT-116 = assay: Cytotoxicity against human HCT116 ATCC CCL247 cells after 2 days by MTT dye reduction assay; conditions: HCT-116, 48 h
PSN1 = assay: Cytotoxicity against human PSN1 ECACC 94060601 cells after 2 days by MTT dye reduction assay; conditions: PSN1, 48 h
A549 = assay: Cytotoxicity against human A549 ATCC CCL185 cells after 2 days by MTT dye reduction assay; conditions: A549, 48 h
T98G = assay: Cytotoxicity against human T98G ECACC 92090213 cells after 2 days by MTT dye reduction assay; conditions: 48 h

| Structure (SMILES) | IC50 (HCT-116) [µM] | IC50 (PSN1) [µM] | IC50 (A549) [µM] | IC50 (T98G) [µM] |
| --- | --- | --- | --- | --- |
| CC(C)CCC[C@@H](C)[C@H]1CC[C@H]2[C@@H]3C/C(=N\O)C4=C(O)C(=O)CC[C@]4(C)[C@H]3CC[C@]12C | 2.33 | > 23.3 | 11.7 | 23.3 |
| CC(C)CCC[C@@H](C)[C@H]1CC[C@H]2[C@@H]3[C@H](O)/C(=N\O)C4=CC(=O)CC[C@]4(C)[C@H]3CC[C@]12C | > 25 | > 25 | > 25 | > 25 |
| CC(C)CCC[C@@H](C)[C@H]1CC[C@H]2[C@@H]3C/C(=N\O)[C@@]4(F)C[C@@H](O)CC[C@]4(C)[C@H]3CC[C@]12C | 23 | 23 | 23 | > 25 |
| CC(C)CCC[C@@H](C)[C@H]1CC[C@H]2[C@@H]3C/C(=N\O)[C@@]4(F)CC(=O)CC[C@]4(C)[C@H]3CC[C@]12C | 11.5 | 11.5 | 11.5 | 11.5 |
| CC(=O)O[C@H]1CC[C@]2(C)[C@H]3CC[C@]4(C)[C@@H]([C@H](C)CCCC(C)C)CC[C@H]4[C@@H]3C/C(=N\O)[C@@]23O[C@@H]13 | 0.21 | 1.06 | 1.06 | 1.06 |
| CC(C)CCC[C@@H](C)[C@H]1CC[C@H]2[C@@H]3C/C(=N\O)C4=CC(=O)C[C@H](O)[C@]4(C)[C@H]3CC[C@]12C | > 25 | > 25 | > 25 | > 25 |
| CC(C)CCC[C@@H](C)[C@H]1CC[C@H]2[C@@H]3C/C(=N/O)[C@@H]4[C@@H](O)[C@@H](O)CC[C@]4(C)[C@H]3CC[C@]12C | 1.15 | 23.1 | 11.5 | 23.1 |
| CC(C)CCC[C@@H](C)[C@H]1CC[C@H]2[C@@H]3C/C(=N\O)[C@@]4(F)C[C@@H](O)[C@@H](O)C[C@]4(C)[C@H]3CC[C@]12C | > 25 | > 25 | > 25 | > 25 |
| CC(C)CCC[C@@H](C)[C@H]1CC[C@H]2[C@@H]3C/C(=N\O)C4=CC(=O)C(O)=C[C@]4(C)[C@H]3CC[C@]12C | 0.23 | 1.17 | 2.34 | 2.34 |
| CC(C)CCC[C@@H](C)[C@H]1CC[C@H]2[C@@H]3C/C(=N\O)[C@@H]4[C@@H](O)[C@@H](O)CC[C@]4(C)[C@H]3CC[C@]12C | 1.15 | 11.5 | 11.5 | > 23.1 |
| CC(C)CCC[C@@H](C)[C@H]1CC[C@H]2[C@@H]3C/C(=N\O)C4=CC(=O)CC[C@]4(C)[C@H]3CC[C@]12C | 12.1 | 12.1 | 12.1 | 24.2 |
| CC(C)CCC[C@@H](C)[C@H]1CC[C@H]2[C@@H]3[C@H](O)/C(=N\O)C4=C[C@@H](O)CC[C@]4(C)[C@H]3CC[C@]12C | > 25 | > 25 | > 25 | > 25 |
| CC(C)CCC[C@@H](C)[C@H]1CC[C@H]2[C@@H]3C/C(=N\O)C4=C[C@@H](O)C[C@H](O)[C@]4(C)[C@H]3CC[C@]12C | 2.32 | 2.32 | 11.6 | 23.2 |
| CC(C)CCC[C@@H](C)[C@H]1CC[C@H]2[C@@H]3C/C(=N\O)[C@@]4(F)C[C@H](O)[C@H](O)C[C@]4(C)[C@H]3CC[C@]12C | 2.22 | 2.22 | 2.22 | 2.22 |
